Data from PubChem BioAssay AID330 (DTP/NCI, 2004).
Values joined by “and” are separate entries in the source; they are usually repeats but may differ in a detail not shown here. Equal entries are not always repeated. Toxic doses and inconclusive results are not listed.

System: P388 leukemia ip, CD2F1 mice, survival T/C
Assay: NCI In Vivo Anticancer Drug Screen. Data for tumor model P388 Leukemia (intraperitoneal) in CD2F1 (CDF1) mice
Conditions: endpoint: median survival time, higher = longer survival
How it was run: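 Mice carrying the transplanted tumor received test compound or vehicle. Survival was recorded in each group, and the value is the treated-group measurement divided by that of the vehicle-treated control group.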

[1] = dose: 50.0 mg/kg/injection, schedule: Q01DX005 (ip), vehicle: saline with Tween-80
[2] = dose: 100.0 mg/kg/injection, schedule: Q01DX005 (ip), vehicle: saline with Tween-80
[3] = dose: 100.0 mg/kg/injection, schedule: Q01DX009 (ip), vehicle: Klucel (hydroxypropylcellulose) (HPC)
[4] = dose: 200.0 mg/kg/injection, schedule: Q01DX009 (ip), vehicle: Klucel (hydroxypropylcellulose) (HPC)
[5] = dose: 50.0 mg/kg/injection, schedule: Q01DX005 (ip), vehicle: Klucel (hydroxypropylcellulose) (HPC)
[6] = dose: 100.0 mg/kg/injection, schedule: Q01DX005 (ip), vehicle: Klucel (hydroxypropylcellulose) (HPC)
[7] = dose: 200.0 mg/kg/injection, schedule: Q01DX005 (ip), vehicle: Klucel (hydroxypropylcellulose) (HPC)

In the case of `CC(=O)n1c2ccccc2c2c(C)c3c[n+]([O-])ccc3c(C)c21`, the T/C (dose: 12.5 mg/kg/injection, schedule: Q04DX002 (ip), vehicle: saline with Tween-80) is reported as 100 % of control, the T/C (dose: 25.0 mg/kg/injection, schedule: Q04DX002 (ip), vehicle: saline with Tween-80) is reported as 110 % of control and the T/C (dose: 50.0 mg/kg/injection, schedule: Q04DX002 (ip), vehicle: saline with Tween-80) is reported as 122 % of control. For the same molecule, the T/C (dose: 200.0 mg/kg/injection, schedule: Q04DX002 (ip), vehicle: saline with Tween-80) was 93 % of control.

With `COc1ccc(C(CCO)c2cc3c(cc2OC)OCO3)cc1` (stereo unspecified) the T/C (dose: 50.0 mg/kg/injection, schedule: Q01DX005 (ip), vehicle: distilled water + Tween-80) was 101 % of control, the T/C (dose: 100.0 mg/kg/injection, schedule: Q01DX005 (ip), vehicle: distilled water + Tween-80) was 101 % of control and the T/C (dose: 200.0 mg/kg/injection, schedule: Q01DX005 (ip), vehicle: distilled water + Tween-80) was 98 % of control.

`Cc1c(Cl)cccc1Nc1ncccc1C(=O)O` was tested, and the T/C [1] was 95 % of control and the T/C [2] was 105 % of control.

In the case of `CCCCCCCCCCCCCCCCCC(=O)OCCN(C=O)C[n+]1ccccc1`, the T/C (dose: 100.0 mg/kg/injection, schedule: Q04DX002 (ip), vehicle: saline) is reported as 93 % of control and the T/C (dose: 200.0 mg/kg/injection, schedule: Q04DX002 (ip), vehicle: saline) is reported as 120 % of control.

In the case of `CNc1cc(Cl)c(Cl)cc1[N+](=O)[O-]`, the T/C (dose: 37.5 mg/kg/injection, schedule: Q04DX003 (ip), vehicle: saline sonified) is reported as 95 % of control, the T/C (dose: 75.0 mg/kg/injection, schedule: Q04DX003 (ip), vehicle: saline sonified) is reported as 95 % of control and the T/C (dose: 150.0 mg/kg/injection, schedule: Q04DX003 (ip), vehicle: saline sonified) is reported as 95 % of control.

With `C/C(=C\C(=O)c1ccc(F)cc1)N1CCN(c2ccc(F)cc2)CC1` the T/C (dose: 50.0 mg/kg/injection, schedule: Q01DX005 (ip), vehicle: other) was 96 % of control and the T/C (dose: 100.0 mg/kg/injection, schedule: Q01DX005 (ip), vehicle: other) was 93 % of control.

`O=C(O)CNCCCNCC(=O)O` was tested, and the T/C (dose: 50.0 mg/kg/injection, schedule: Q01DX005 (ip), vehicle: saline) was 94 % of control, the T/C (dose: 100.0 mg/kg/injection, schedule: Q01DX005 (ip), vehicle: saline) was 88 % of control and the T/C (dose: 200.0 mg/kg/injection, schedule: Q01DX005 (ip), vehicle: saline) was 99 % of control.

For `Cc1cccc(NC(=S)/N=C(\SCc2ccccc2)N(C)c2ccccc2)c1`, the T/C [1] was 90 % of control and the T/C [2] was 93 % of control.

`COc1c(CNC(=O)CCl)cc2[nH]c(C)cc2c1CNC(=O)CCl` was tested, and the T/C [3] was 153 % of control and the T/C [4] was 150 % of control.

For `CCN(CC)CCCN(c1ccccc1)C1Cc2ccccc2C1`, the T/C (dose: 15.0 mg/kg/injection, schedule: Q01DX009 (ip), vehicle: saline) was 95 % of control, the T/C (dose: 30.0 mg/kg/injection, schedule: Q01DX009 (ip), vehicle: saline) was 87 % of control and the T/C (dose: 60.0 mg/kg/injection, schedule: Q01DX009 (ip), vehicle: saline) was 101 % of control.

For `C=C(C)c1c(C)nc2c(N)nc(N)[n+]([O-])c2[n+]1[O-]`, the T/C (dose: 37.5 mg/kg/injection, schedule: Q01DX009 (ip), vehicle: saline) was 108 % of control, the T/C (dose: 75.0 mg/kg/injection, schedule: Q01DX009 (ip), vehicle: saline) was 118 % of control and the T/C (dose: 150.0 mg/kg/injection, schedule: Q01DX009 (ip), vehicle: saline) was 101 % of control.

For `CNC(=S)N(C)CCCCN(C)C(=S)NC`, the T/C (dose: 50.0 mg/kg/injection, schedule: Q01DX009 (ip), vehicle: saline) was 102 % of control, the T/C (dose: 100.0 mg/kg/injection, schedule: Q01DX009 (ip), vehicle: saline) was 105 % of control and the T/C (dose: 200.0 mg/kg/injection, schedule: Q01DX009 (ip), vehicle: saline) was 100 % of control.

For `O=C(O)N1CCc2c(sc3ccccc23)C1`, the T/C (dose: 12.5 mg/kg/injection, schedule: Q01DX001 (ip), vehicle: Klucel (hydroxypropylcellulose) (HPC)) was 103 % of control, the T/C (dose: 25.0 mg/kg/injection, schedule: Q01DX001 (ip), vehicle: Klucel (hydroxypropylcellulose) (HPC)) was 98 % of control and the T/C (dose: 50.0 mg/kg/injection, schedule: Q01DX001 (ip), vehicle: Klucel (hydroxypropylcellulose) (HPC)) was 100 % of control and 104 % of control.

`COc1cc(N(CC(C)Br)CC(C)Br)ccc1N=Nc1ccccc1C(=O)O` (stereo unspecified) was tested, and the T/C (dose: 1.56 mg/kg/injection, schedule: Q01DX009 (ip), vehicle: saline with Tween-80) was 164 % of control and the T/C (dose: 3.12 mg/kg/injection, schedule: Q01DX009 (ip), vehicle: saline with Tween-80) was 160 % of control and 169 % of control.

In the case of `O=c1n(-c2ccccc2)c(=O)n2n1C1C=CC2C23C=CC12CCCC3` (stereo unspecified), the T/C (dose: 100.0 mg/kg/injection, schedule: Q04DX003 (ip), vehicle: Klucel (hydroxypropylcellulose) (HPC)) is reported as 96 % of control, the T/C (dose: 200.0 mg/kg/injection, schedule: Q04DX003 (ip), vehicle: Klucel (hydroxypropylcellulose) (HPC)) is reported as 96 % of control and the T/C (dose: 400.0 mg/kg/injection, schedule: Q04DX003 (ip), vehicle: Klucel (hydroxypropylcellulose) (HPC)) is reported as 96 % of control.

`CC(=O)CSC1=CC(C)(C)CC1=O` was tested, and the T/C [5] was 96 % of control, the T/C [6] was 99 % of control and the T/C [7] was 99 % of control.

With `N=c1c2ccccc2c2ccccc2n1O` the T/C (dose: 50.0 mg/kg/injection, schedule: Q01DX001 (ip), vehicle: saline sonified) was 110 % of control, the T/C (dose: 100.0 mg/kg/injection, schedule: Q01DX001 (ip), vehicle: saline sonified) was 90 % of control and the T/C (dose: 200.0 mg/kg/injection, schedule: Q01DX001 (ip), vehicle: saline sonified) was 100 % of control.

`CC(=O)NCc1cccc([N+](=O)[O-])c1` was tested, and the T/C (dose: 25.0 mg/kg/injection, schedule: Q01DX005 (ip), vehicle: saline with Tween-80) was 100 % of control, the T/C [1] was 103 % of control and the T/C [2] was 100 % of control. For the same molecule, the T/C (dose: 200.0 mg/kg/injection, schedule: Q01DX005 (ip), vehicle: saline with Tween-80) was 105 % of control.

In the case of `O=S1(=O)Cc2c3c(c4c(c2C1)CS(=O)(=O)C4)CS(=O)(=O)C3`, the T/C (dose: 50.0 mg/kg/injection, schedule: Q04DX002 (ip), vehicle: Klucel (hydroxypropylcellulose) (HPC)) is reported as 94 % of control, the T/C (dose: 100.0 mg/kg/injection, schedule: Q04DX002 (ip), vehicle: Klucel (hydroxypropylcellulose) (HPC)) is reported as 96 % of control and the T/C (dose: 200.0 mg/kg/injection, schedule: Q04DX002 (ip), vehicle: Klucel (hydroxypropylcellulose) (HPC)) is reported as 98 % of control.

`CCCNc1nc(C)nc2[nH]c(Cc3ccccc3)c(C)c12` was tested, and the T/C [5] was 97 % of control, the T/C [6] was 100 % of control and the T/C [7] was 100 % of control.

In the case of `O=[N+]([O-])CC(OCCCCCCO)C(Cl)(Cl)Cl` (stereo unspecified), the T/C (dose: 50.0 mg/kg/injection, schedule: Q01DX009 (ip), vehicle: saline with Tween-80) is reported as 100 % of control and the T/C (dose: 100.0 mg/kg/injection, schedule: Q01DX009 (ip), vehicle: saline with Tween-80) is reported as 95 % of control.

For `CCCC1=CC(C)(C)CC(C)=C1` (tested in a mixture with another compound), the T/C (dose: 50.0 mg/kg/injection, schedule: Q01DX009 (ip), vehicle: saline sonified) was 95 % of control, the T/C (dose: 100.0 mg/kg/injection, schedule: Q01DX009 (ip), vehicle: saline sonified) was 95 % of control and the T/C (dose: 200.0 mg/kg/injection, schedule: Q01DX009 (ip), vehicle: saline sonified) was 90 % of control.

For `O=C1NC(=O)C2CC3C(CC12)C1C(=O)NC(=O)C31` (stereo unspecified), the T/C [1] was 104 % of control and the T/C [2] was 101 % of control.

`Cc1ccc([N+]([O-])=NC#N)cc1` was tested, and the T/C (dose: 7.5 mg/kg/injection, schedule: Q04DX003 (ip), vehicle: Klucel (hydroxypropylcellulose) (HPC)) was 97 % of control, the T/C (dose: 15.0 mg/kg/injection, schedule: Q04DX003 (ip), vehicle: Klucel (hydroxypropylcellulose) (HPC)) was 100 % of control and the T/C (dose: 30.0 mg/kg/injection, schedule: Q04DX003 (ip), vehicle: Klucel (hydroxypropylcellulose) (HPC)) was 112 % of control.

`S=C(N/N=C1/CCCC/C1=N/NC(=S)N1CCOCC1)N1CCOCC1` was tested, and the T/C (dose: 1.56 mg/kg/injection, schedule: Q01DX005 (ip), vehicle: saline with Tween-80) was 101 % of control and 103 % of control and the T/C (dose: 3.12 mg/kg/injection, schedule: Q01DX005 (ip), vehicle: saline with Tween-80) was 99 % of control and 103 % of control and 104 % of control.

For `C[n+]1ccn2cc(S(=O)(=O)[O-])ccc21`, the T/C (dose: 3.12 mg/kg/injection, schedule: Q01DX009 (ip), vehicle: saline) was 92 % of control and the T/C (dose: 6.25 mg/kg/injection, schedule: Q01DX009 (ip), vehicle: saline) was 95 % of control.

With `Cc1cc(=O)n(C)c2ccc([N+](=O)[O-])cc12` the T/C (dose: 50.0 mg/kg/injection, schedule: Q01DX009 (ip), vehicle: Klucel (hydroxypropylcellulose) (HPC)) was 106 % of control, the T/C [3] was 108 % of control and the T/C [4] was 108 % of control.

In the case of `CCC(O)(c1ccccc1)c1cnc(C)n1Cc1ccccc1` (stereo unspecified), the T/C (dose: 60.0 mg/kg/injection, schedule: Q01DX005 (ip), vehicle: saline with Tween-80) is reported as 91 % of control, the T/C (dose: 120.0 mg/kg/injection, schedule: Q01DX005 (ip), vehicle: saline with Tween-80) is reported as 88 % of control and the T/C (dose: 240.0 mg/kg/injection, schedule: Q01DX005 (ip), vehicle: saline with Tween-80) is reported as 89 % of control.
